The test has as its target T1, MERTK (cMER) A708S (Homo sapiens, UniProt Q12866, A708S).
T1 construct: purchased Thermo Fisher Scientific (Life Technologies) SelectScreen
Kind of test: SelectScreen LanthaScreen. Particulars: read-out: % displacement. It is filed as binding. How it is done:
The in vitro kinase selectivity of NU5455 was determined using the SelectScreen Broad Assay Panel (Thermo Fisher Scientific) involving activity and binding assays (Supplemental Table 1). […] Class IA PI3Ks were measured using the p85α subunit.
Kinase [ATP] % Assay Kinase [ATP] % Assay Kinase [ATP] % Assay Kinase [ATP] % Assay […]
FGR Km app 12.1 Z SRC N1 Km app 3.9 Z MERTK (cMER) A708S n/a 0.6 L RET M918T n/a -3.5 L […]
SGK (SGK1) Km app 8.5 Z MAP4K2 (GCK) Km app 2.7 Z TLK2 n/a -0.3 L STK38 (NDR) n/a -5.9 L
MERTK (cMER) Km app 8.3 Z CDK2/cyclin A Km app 2.7 Z TGFBR1 (ALK5) n/a -0.4 L MATK (HYL) Km app -6.3 Z
FYN Km app 8.3 Z EPHA1 Km app 2.7 Z CLK3 Km app -0.5 Z ABL1 E255K Km app -6.6 Z
TEC n/a 8.1 L CDK2/cyclin E1 n/a 2.7 L MAP3K14 (NIK) n/a -0.5 L STK17A (DRAK1) n/a -6.6 L
KIT V654A n/a 8.1 L TESK2 n/a 2.7 L AKT3 (PKB gamma) Km app -0.5 Z JAK2 JH1 JH2 Km app -6.7 Z
ROS1 Km app 8.0 Z SPHK1 Km app 2.7 A MAP3K9 (MLK1) Km app -0.5 Z PRKACB (PRKAC beta) n/a -6.8 L
FGFR3 K650E Km app 7.9 Z AMPK A2/B1/G1 Km app 2.6 Z IKBKB (IKK beta) Km app -0.6 Z PDGFRA (PDGFR alpha) Km app -6.8 Z
RAF1 (cRAF) Y340D Y341D 100 7.9 Z DYRK3 Km app 2.6 Z CAMK2A (CaMKII alpha) Km app -0.6 Z NEK9 Km app -7.2 Z
PI4KA (PI4K alpha) 10 7.8 A CSNK1D (CK1 delta) Km app 2.6 Z PRKCB1 (PKC beta I) Km app -0.7 Z PDK1 Km app -7.3 Z
HIPK2 Km app 7.8 Z ACVR2A n/a 2.5 L TTK n/a -0.7 L RPS6KB1 (p70S6K) Km app -7.8 Z […]

T1 sequence (Q12866 21-999 A708S): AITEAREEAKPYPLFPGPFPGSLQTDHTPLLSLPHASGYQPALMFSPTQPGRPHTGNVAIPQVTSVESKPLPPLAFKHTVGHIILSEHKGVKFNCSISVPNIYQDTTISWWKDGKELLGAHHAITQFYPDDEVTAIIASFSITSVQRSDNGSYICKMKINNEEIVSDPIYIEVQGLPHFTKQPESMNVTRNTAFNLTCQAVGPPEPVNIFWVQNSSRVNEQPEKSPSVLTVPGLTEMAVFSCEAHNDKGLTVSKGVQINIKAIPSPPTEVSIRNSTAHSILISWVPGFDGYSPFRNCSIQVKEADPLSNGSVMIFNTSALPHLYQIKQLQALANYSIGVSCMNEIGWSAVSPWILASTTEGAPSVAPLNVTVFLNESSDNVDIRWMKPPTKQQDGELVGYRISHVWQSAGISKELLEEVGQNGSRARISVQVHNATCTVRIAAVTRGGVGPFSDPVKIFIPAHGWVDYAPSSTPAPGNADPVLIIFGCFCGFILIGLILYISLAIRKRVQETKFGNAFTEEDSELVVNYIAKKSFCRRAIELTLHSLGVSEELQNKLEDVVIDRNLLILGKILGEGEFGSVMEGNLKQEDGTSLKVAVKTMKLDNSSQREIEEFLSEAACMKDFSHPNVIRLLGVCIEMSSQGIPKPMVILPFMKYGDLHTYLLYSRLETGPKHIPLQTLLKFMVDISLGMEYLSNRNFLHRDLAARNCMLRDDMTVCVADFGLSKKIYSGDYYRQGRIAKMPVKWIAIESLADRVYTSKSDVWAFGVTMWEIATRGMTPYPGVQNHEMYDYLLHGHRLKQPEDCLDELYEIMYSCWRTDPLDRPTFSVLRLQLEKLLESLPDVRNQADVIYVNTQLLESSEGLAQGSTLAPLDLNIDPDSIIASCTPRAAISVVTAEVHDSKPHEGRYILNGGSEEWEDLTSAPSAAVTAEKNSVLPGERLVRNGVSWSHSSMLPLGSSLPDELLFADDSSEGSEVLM

As for `CN(C(=O)CN1CCOCC1)c1ccc2sc3c(-c4cccc5c(=O)cc(N6CC7CCC(C6)O7)oc45)cccc3c2c1` [NU5455], the inhibition at 1 µM came to 0.6%.

Values taken from publication PMC6934184, “Selective DNA-PKcs inhibition extends the therapeutic index of localized radiotherapy and chemotherapy” (The Journal of Clinical Investigation, 2019).
